# System: TABX2S cells (over-expressing Bcl-xL)
# Assay: cells
# Text: Briefly, a DNA fragment encoding the full-length mouse BCl-xL cDNA was isolated from the plasmid PBS.BCL-xL (Tzung et al., Am. J. Path. 150:1985-1995, 1997, incorporated herein by reference in its entirety) by digestion with the restriction endonuclease EcoRI. This EcoRI fragment was cloned into the EcoRI site of the mammalian expression vector pSFFV (Fuhlbrigge et al., Proc. Nat. Acad. Sci. USA 85:5649-5653, 1988) in both sense and antisense orientations, to form expression plasmids pSFFV.Bcl-xL(sense) or pSFFV.Bcl-xL(antisense), respectively. The tumorigenic murine hepatocyte cell line TAMH was transfected by lipofection (Lipofectamine, Life Technologies, Rockville, Md., according to the manufacturer's recommendations) with the plasmids pSFFV.neo (the control), pSFFV.Bcl-xL(sense) or pSFFV.Bcl-xL(antisense). […] Transfectants were selected for the acquisition of neomycin resistance by growing cells in the presence of 750 μg/ml of G418. Bulk transfectants were cloned by limiting dilution and individual clones were screened by immunoblot analysis to determine the level of BCl-xL protein expression as described below.
# Selected transfectants were then tested for whole cell sensitivity to several apoptotic agents. Transfected cells were cultured to reach approximately 80% confluency prior to plating an equal number of cells from selected clones on 12-well tissue culture plates. The transplanted cells were treated with the following apoptotic agents: 5 μM doxorubicin for 48 hours; 5 μM cisplatin for 48 hours; or with 200 U/ml tumor necrosis factor (TNF) plus 1 μg/ml actinomycin D for 18 hours. Cell viability was determined by trypan blue dye exclusion. The percentage of viable cells was calculated by the number of viable cells (treated with a particular apoptogenic agent) divided by the number in the control group (untreated).
# TABX2S cells and TABX1A cells were also examined for the effects of various mitochondrial inhibitors. […] Azide was diluted from an aqueous stock solution. […] Controls received an equivalent concentration of diluent. At various time points after drug treatment, cells were trypsinized, and cell viability was determined by trypan blue dye exclusion. The number of viable cells were counted and normalized to control group (i.e., % control=number of viable cells (treated group)/number of viable cells (control group)×100).
smiles,measurement,setting,value
CC(C)[C@@H]1NC(=O)[C@H](C)OC(=O)[C@@H](C(C)C)NC(=O)[C@@H](C(C)C)OC(=O)[C@H](C(C)C)NC(=O)[C@H](C)OC(=O)[C@@H](C(C)C)NC(=O)[C@@H](C(C)C)OC(=O)[C@H](C(C)C)NC(=O)[C@H](C)OC(=O)[C@@H](C(C)C)NC(=O)[C@@H](C(C)C)OC1=O [valinomycin],difference in sensitivity of the two cell lines,TABX2S vs TABX1A,no significant differences
same,time until cell death apparent,"after treatment, TABX2S and TABX1A cells",six to eight

# From patent publication US20050239873A1 (priority 1999, published 2005)
